Measurements reported in patent US20260132172A1, “IN VITRO BIOSYNTHESIS OF DIVERSE PYRIDINE-BASED MACROCYCLIC PEPTIDES” (The Brd. of Trustees of the Univ. of Illinois, priority 2022, published 2026).

Legend:
MroB/C = MroB/C dehydration (Dha formation) of MroA precursor peptide variants, MALDI-TOF-MS / LC-MS/MS; assay type: biochemical, Micromonospora rosaria; settings: for Dha formation: MroA2 multi-site variants, in vitro translated, MALDI-TOF-MS; for dehydration by MroBC (site and extent): MroBC assays followed by LC-MS/MS analysis, result in words
Description: In a 0.65 mL protein low-binding Eppendorf tube placed on ice. 0.75 μL of purified mroA variant template DNA was mixed with 0.75 μL of Solution B and 1 μL of Solution A of PURExpress In vitro Protein Synthesis Kit (E6800L) purchased from NEB (total volume of reaction is 2.5 μL). The translation reactions were performed at 37° C. for 1 h on an aluminum block.
For a full MroBCD substrate scope investigation, a total translation volume for each variant of 7.5 μL was performed. 1.5 μL of 90 mM iodoacetamide (IAA) was added to quench dithiothreitol (DTT) in the translation reaction mixture, a thiol-based nucleophile that can react with electrophilic dehydroalanines generated from MroBC-catalyzed dehydration assays. The translation product was split into two parts with these corresponding volumes: 3 μL and 6 μL. In the 6 μL part. 10.2 μL of the enzyme mix containing enzymes and cofactors was added along with 1.8 μL 90 mM ATP (pH 7.5), which was used to initiate the reaction. The enzyme mix was made by adding these components in the following order: HEPES pH 7.5, MgCl2, glutamate, T. bispora tRNA^Glu (CUC), thermostable inorganic pyrophosphatase (TIPP), TEV (L56V/S135G/S219V) (w/w ratio with a total amount of MBP-tagged protein=1:10), MBP-MroB, MBP-MroC, and T. bispora GluRS. The enzyme mix was incubated 25 min at room temperature before adding to the translation product to facilitate in situ TEV-catalyzed cleavage of MBP from MBP-MroB and MBP-MroC. The enzymatic reaction proceeded for 1 h at room temperature. Overall, the concentration of components in the 18 μL reaction mix is as follows: 50 mM HEPES pH 7.5, 5 mM MgCl2. L-glutamate 1 mM, 3 μM T. bispora tRNA^Glu, 1 μM T. bispora GluRS, 2 μM MBP-MroB, 2 μM MBP-MroC, […], 0.027 U/μL TIPP, and 5 mM IAA. In addition, the 3 μL part was incubated with the same buffer lacking enzymes and tRNA as a translation control.
The reactions were performed similarly as described above, with 10 μM substrate concentration and without IAA. The total volume of each reaction is 100 μL.
Enzymatic assays were desalted using solid-phase extraction prior to LC-ESI-MS/MS analysis. Specifically, except for the thiazol(in)es-containing pyritide (which utilize 8 mg Pierce C18 Spin Column), the samples were applied to Toptip C18 (10-200 μL, Glygen Corp) wetted with 50 μL of 80% acetonitrile (0.1% formic acid) and equilibrate with 150 μL of 0.1% formic acid following the manufacturer instructions. The C18 columns (tips) are then washed with 150 μL of 0.1% formic acid and eluted using 100 μL 80% acetonitrile (0.1% formic acid). The samples were then dried utilizing lyophilization and redissolved in 25% acetonitrile (80 μL for enzymatic assays of in vitro-translated substrates and 200 μL for enzymatic assays of purified substrates). Then 20 μL of each sample was injected into an Agilent AdvanceBio Peptide Plus column (2.1×150 mm, 2.7 μm) equipped with an Agilent 6545B Q-TOF interfaced with an Agilent 1290 Infinity II LC system. Mobile phase solvents were composed of H2O, 0.1% formic acid (Solvent A), and acetonitrile 0.1% formic acid (Solvent B). The column compartment was maintained at 35° C. during all experiments. The column was equilibrated with 5 column volumes of starting mobile phase (95% A and 5% B) between injections. The gradient of all LC runs was as follows: 0-2 min: 95% A 5% B, 2-3 min: 70% A 30% B, 3-18 min: 20% A 80% B, 18-20 min: 5% A 95% B. The samples were run to waste for the first 3 min before applying to the mass spectrometer. Mass range was set from 100 to 1700 m/z (except for 412MroA1 W7G: 100-3000 m/z). MS parameters were as follows: gas, 320° C. at 8 L/min: nebulizer, 35 psig: nozzle voltage, 1000 V: sheath gas, 350° C. at 11 L/min: capillary, 3500 V: fragmentor, 125 V: skimmer, 65 V: MS scan rate (10) spectra/s): MS-MS scan rate (5 spectra/s); and isolation width (MS/MS), 1.3 m z. […]

MroD = MroD [4+2] macrocyclization of didehydrated MroA2 variants, MALDI-TOF-MS; assay type: biochemical, Micromonospora rosaria; set-up: key: +++ indicates enzyme activity roughly equal to wild-type MroA2; ++ indicates modestly reduced enzyme activity; + indicates severely reduced enzyme activity; − indicates no detectable enzyme activity (no macrocycles observed); settings: MroA2 multi-site variants; qualitatively estimated from leader peptide vs remaining didehydrated intermediate
Description: After incubation, the enzyme reaction (18 μL) was split into two equal parts. One part was treated with MBP-MroD such that the final concentration of MBP-MroD is 3 μM, and the other part was added the same volume but with buffer lacking MBP-MroD (50 mM HEPES, 300 mM NaCl, 2.5% glycerol, 0.5 mM TCEP). The reaction further proceeded for 1.5 h at room temperature. All reaction mixture was then desalted with solid-phase extraction using Ziptip with 0.6 μL C18 resin (EMD Millipore) and crystallized on an MTP384 steel target plate using either saturated sinapic acid or 50 mg/mL Super DHB [dissolved in 60% acetonitrile and 0.1% trifluoroacetic acid (TFA)] as the matrix. The crystallized spots were then analyzed using MALDI-TOF-MS (Bruker Ultraflex). The external standard for MALDI-TOF-MS analysis is ProteoMass Peptide and Protein MALDI-MS Calibration Kit (Sigma).

Row | Substance | Dha formation (MroB/C) | Relative MroD conversion (MroD) | dehydration by MroBC (site and extent) (MroB/C)
1 | SGDDRDGGSWLI [Number 27] | Mix of 1, 2 | + | 
2 | SGKLGFSWLI [Number 10] | 2 Dha | + | 
3 | SGRYHSWLI [Number 12] | 2 Dha | +++ | 
4 | SGAGLNRSWLI [Number 17] | 2 Dha | +++ | 
5 | SGIKNDASWLI [Number 23] | 2 Dha | +++ | 
6 | SGIYHNSWLI [Number 20] | 2 Dha | +++ | 
7 | SGNMHPGKSWLI [Number 40] | 2 Dha | ++ | 
8 | SGLKFYHSWLI [Number 44] | 2 Dha | +++ | 
9 | SGQPQRLGSWLI [Number 42] | 2 Dha | +++ | 
10 | SGMPRGSWLI [Number 8] | 2 Dha | +++ | 
11 | SGKGKQASWLI [Number 19] | 2 Dha |  | 
12 | SGMARYSWLI [Number 26] | 2 Dha | + | 
13 | SGGWRVAHSWLI [Number 45] | 2 Dha | + | 
14 | SGYDRQRSWLI [Number 56-Y7R] | 2 Dha | +++ | 
15 | SGQDVANRSWLI [Number 43] | 2 Dha | +++ | 
16 | MroA2-S1G/W8G: MroA2 variant (MRRRGSMDNVVTEAAEFADLDIVDLDLAVDEELAALSVGGLGNTEVGAGGFFGRSGLI) |  |  | inefficiently dehydrated at Ser7
17 | SGEMHQHSWLI [Number 41] | Mix of 1, 2 | + | 
18 | SGFIRNASWLI [Number 31] | 2 Dha | ++ | 
19 | SGQYKFRSWLI [Number 48] | 2 Dha | +++ | 

Row | Substance | Dha formation (MroB/C) | Relative MroD conversion (MroD) | dehydration by MroBC (site and extent) (MroB/C)
20 | SGAVRFNGSWLI [Number 36] | 2 Dha | + | 
21 | SGKALERSWLI [Number 29-F7R] | Mix of 1,2 | ++ | 
22 | SGDGWRSWLI [Number 18] | 2 Dha | +++ | 
23 | SGHQFKSWLI [Number 22] | 2 Dha | +++ | 
24 | SGPKGSWLI [Number 5] | 2 Dha | +++ | 
25 | SGNAWIKSWLI [Number 32] | 2 Dha | +++ | 
26 | SGVKFSWLI [Number 3] | 2 Dha | + | 
27 | SGGRENSWLI [Number 11] | 2 Dha | ++ | 
28 | SGRGYALSWLI [Number 25] | 2 Dha | ++ | 
29 | SGGYRPRSWLI [Number 38-H7R] | 2 Dha | +++ | 
30 | SGREFANSWLI [Number 35] | 2 Dha | + | 
31 | SGPRANYSWLI [Number 30] | 2 Dha | ++ | 
32 | SGYANRAGSWLI [Number 33] | 2 Dha | +++ | 
33 | MroA2-SIG: MroA2 variant (MRRRGSMDNVVTEAAEFADLDIVDLDLAVDEELAALSVGGLGNTEVGAGGFFGRSWLI) |  |  | went to completion
34 | SGPKRWGHSWLI [Number 51] | 2 Dha | + | 
35 | SGFDRAGHSWLI [Number 46] | 2 Dha | + | 
36 | SGRYAGRSWLI [Number 39-W7R] | 2 Dha | +++ | 
37 | SGPMHYSWLI [Number 21] | 2 Dha | +++ | 
38 | S7G/W8G: MroA2 variant (MRRRGSMDNVVTEAAEFADLDIVDLDLAVDEELAALSVGGLGNTEVGASGFFGRGGLI) |  |  | completely dehydrated at Ser1

Row | Substance | Dha formation (MroB/C) | Relative MroD conversion (MroD) | dehydration by MroBC (site and extent) (MroB/C)
39 | SGVKAWSWLI [Number 14] | 2 Dha | +++ | 
40 | SGAQQHSWLI [Number 13] | 2 Dha | +++ | 
41 | SGREFARSWLI [Number 35-N7R] | 2 Dha | +++ | 
42 | SGERGMGKSWLI [Number 34] | 2 Dha | +++ | 
43 | SGRVALEASWLI [Number 37] | 2 Dha | + | 
44 | SGQGRNRSWLI [Number 24-V7R] | 2 Dha | +++ | 
45 | SGHWANSWLI [Number 15] | 2 Dha | +++ | 
46 | SGNERGSWLI [Number 9] | 2 Dha | +++ | 
47 | SGQGRNVSWLI [Number 24] | 2 Dha | + | 
48 | SGDAMRWASWLI [Number 53] | 2 Dha |  | 
49 | S7G/110G: MroA2 variant (MRRRGSMDNVVTEAAEFADLDIVDLDLAVDEELAALSVGGLGNTEVGASGFFGRGWLG) |  |  | completely dehydrated at Ser1
50 | SGAWRSWLI [Number 6] | 2 Dha | +++ | 
51 | SGHAAHSWLI [Number 7] | 2 Dha | +++ | 
52 | SGYRRRAGSWLI [Number 50] | 2 Dha | +++ | 
53 | MroA2-S7G: MroA2 variant (MRRRGSMDNVVTEAAEFADLDIVDLDLAVDEELAALSVGGLGNTEVGASGFFGRGWLI) |  |  | went to completion
54 | SGKAPGRSWLI [Number 16] | 2 Dha | +++ | 
55 | SGLGHSWLI [Number 1] | 2 Dha | + | 
56 | SGHDNQARSWLI [Number 49] | 2 Dha | +++ | 
